# Data from patent publication US12195482B1 (Arcus Biosciences, Inc., priority 2022, dated 2025).
# Tests used:
# recombinant human TYRO3 = biological target: T1, recombinant human TYRO3 (Homo sapiens, UniProt Q06418); test: Biochemical potency, HTRF KinEASE-TK kinase assay; details: 1 nM TYRO3, 700 μM ATP
# T1 construct: purchased Invitrogen
# T1 sequence (Q06418 41-890): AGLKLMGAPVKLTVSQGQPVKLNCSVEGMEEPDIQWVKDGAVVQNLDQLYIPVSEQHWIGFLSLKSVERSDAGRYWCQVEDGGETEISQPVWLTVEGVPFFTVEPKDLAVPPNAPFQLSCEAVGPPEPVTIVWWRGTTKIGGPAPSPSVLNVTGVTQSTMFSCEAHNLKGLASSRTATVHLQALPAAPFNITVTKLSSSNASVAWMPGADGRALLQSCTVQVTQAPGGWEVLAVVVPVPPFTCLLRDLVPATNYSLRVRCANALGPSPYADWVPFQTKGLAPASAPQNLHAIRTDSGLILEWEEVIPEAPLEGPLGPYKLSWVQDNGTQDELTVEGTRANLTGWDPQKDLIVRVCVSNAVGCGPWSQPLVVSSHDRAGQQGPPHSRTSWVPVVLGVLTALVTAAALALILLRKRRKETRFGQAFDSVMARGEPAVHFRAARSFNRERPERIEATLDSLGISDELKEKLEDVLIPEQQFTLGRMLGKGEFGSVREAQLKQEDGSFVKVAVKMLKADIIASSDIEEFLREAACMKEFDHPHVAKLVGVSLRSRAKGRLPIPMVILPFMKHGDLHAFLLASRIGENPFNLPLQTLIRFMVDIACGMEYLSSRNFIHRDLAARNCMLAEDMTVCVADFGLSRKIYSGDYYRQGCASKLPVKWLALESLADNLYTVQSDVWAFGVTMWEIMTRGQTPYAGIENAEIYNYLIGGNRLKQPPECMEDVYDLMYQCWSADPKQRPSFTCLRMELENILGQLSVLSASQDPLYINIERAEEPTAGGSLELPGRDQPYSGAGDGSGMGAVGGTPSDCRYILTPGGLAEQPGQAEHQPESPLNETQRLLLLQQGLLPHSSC
# Method: (§1) Measurement of Biochemical Compound Potency of Axl Inhibitors
# (§2) Purified recombinant human AXL, TYRO3 and MER proteins were purchased from Invitrogen™. 10 nM AXL, 2 nM TYRO3 or MER were incubated with varying concentrations of compounds in 50 mM HEPES, pH 7.4, 10 mM MgCl2, 0.01% BSA, 1 mM DTT and 2% DMSO in a total volume of 20 μl in a 384-well microplate (Corning™ #3640) at RT for 1 h. The AXL, TYRO3 and MER enzymatic reaction was initiated by transferring 10 μl of enzyme and compound mixture into 10 μl of 1.6 μM TK Substrate-biotin (HTRF® KinEASE-TK kit, Cisbio) and 1400 μM ATP pre-incubated in 50 mM HEPES, pH 7.4, 10 mM MgCl2, 0.01% BSA, 1 mM DTT in a 384-well microplate (Corning™ #3640) at RT, giving the final reaction conditions: 5 nM AXL, 1 nM TYRO3 or MER, 800 nM TK Substrate-biotin and 700 μM ATP in 50 mM HEPES, pH 7.4, 10 mM MgCl2, 0.01% BSA, 1 mM DTT and 1% DMSO with varying concentrations of compounds. Following 2 h incubation at RT, the AXL, TYRO3 and MER enzymatic reaction was stopped by transfer of 10 μl of reaction into 10 μl of detection mix (400 nM Streptavidin-XL665, 200-fold dilution TK Antibody-Cryptate and detection buffer, HTRF® KinEASE-TK kit, Cisbio) in a white 384-well microplate (Perkin Elmer, OptiPlate 384). After 1 h incubation at RT, the plate was put into a plate reader (Evision) to read at 665/620 nm (acceptor/donor) for HTRF. The value of the DMSO blank (MIN inhibition=100% activity) was used as a negative control. The positive control was established by adding 5 μl of enzyme and DMSO mixture into 10 μl of detection mix followed by addition of 5 μl of TK Substrate-biotin and ATP mixture (MAX inhibition=0% activity). To calculate the percent activity, Equation 1 was used. Ratio665/620 is the value at a given compound concentration: […]
# recombinant human MER = biological target: T2, recombinant human MER (Homo sapiens, UniProt Q12866); test: Biochemical potency, HTRF KinEASE-TK kinase assay; details: 1 nM MER, 700 μM ATP
# T2 construct: purchased Invitrogen
# T2 sequence (Q12866 21-999): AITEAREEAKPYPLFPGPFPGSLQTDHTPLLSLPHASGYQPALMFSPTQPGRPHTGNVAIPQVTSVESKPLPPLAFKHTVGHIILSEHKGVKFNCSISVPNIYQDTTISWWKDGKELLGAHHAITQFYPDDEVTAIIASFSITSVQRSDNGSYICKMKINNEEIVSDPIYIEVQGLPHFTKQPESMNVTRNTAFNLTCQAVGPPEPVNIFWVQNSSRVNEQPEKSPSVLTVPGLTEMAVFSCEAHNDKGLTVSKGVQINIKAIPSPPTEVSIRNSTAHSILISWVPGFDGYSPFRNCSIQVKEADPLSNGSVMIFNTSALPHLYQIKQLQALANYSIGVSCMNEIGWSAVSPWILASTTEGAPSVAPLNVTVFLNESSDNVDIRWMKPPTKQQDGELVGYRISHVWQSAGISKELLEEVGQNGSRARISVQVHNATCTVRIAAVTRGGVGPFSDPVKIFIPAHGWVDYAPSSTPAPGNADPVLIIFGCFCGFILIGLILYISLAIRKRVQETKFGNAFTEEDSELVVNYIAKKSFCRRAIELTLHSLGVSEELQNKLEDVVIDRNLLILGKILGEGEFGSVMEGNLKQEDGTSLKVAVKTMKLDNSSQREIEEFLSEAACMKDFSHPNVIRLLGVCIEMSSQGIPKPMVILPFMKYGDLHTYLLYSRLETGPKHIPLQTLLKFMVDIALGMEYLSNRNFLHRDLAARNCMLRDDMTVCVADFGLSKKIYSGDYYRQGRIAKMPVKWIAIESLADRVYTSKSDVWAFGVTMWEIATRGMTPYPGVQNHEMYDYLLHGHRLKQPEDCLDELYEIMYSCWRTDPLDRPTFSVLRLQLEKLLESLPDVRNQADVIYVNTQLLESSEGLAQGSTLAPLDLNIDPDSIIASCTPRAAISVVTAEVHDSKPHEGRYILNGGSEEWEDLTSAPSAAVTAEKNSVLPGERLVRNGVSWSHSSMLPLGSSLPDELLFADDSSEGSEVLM
# Method: as §1, §2
Structure (SMILES),IC50 (recombinant human TYRO3) [nM],IC50 (recombinant human MER) [nM]
"CCc1cccnc1-c1ccc(-c2n[nH]c3ncc(-c4ccc5c(c4)CC[C@@H](N4C6COCC4C6)CC5)cc23)cc1 [Example 182, 6-[(7S)-2-{3-[4-(3-Ethylpyridin-2-yl)phenyl]-1H-pyrazolo[3,4-b]pyridin-5-yl}-6,7,8,9-tetrahydro-5H-benzo[7]annulen-7-yl]-3-oxa-6-azabicyclo[3.1.1]heptane]",< 100,100 to 1000
"C[C@@H]1CCCN1[C@@]1(C)CCc2ccc(-c3cnc4[nH]nc(-c5ccc(-c6ncnn6C)cc5)c4c3)cc2CC1 [Example 112, 1-Methyl-5-(4-{5-[(7S)-7-methyl-7-[(2R)-2-methylpyrrolidin-1-yl]-6,7,8,9-tetrahydro-5H-benzo[7]annulen-2-yl]-1H-pyrazolo[3,4-b]pyridin-3-yl}phenyl)-1H-1,2,4-triazole]",< 100,< 100
"CN(C)C(=O)c1cccnc1-c1ccc(-c2n[nH]c3ncc(-c4ccc5c(c4)CC[C@@H](N4C6COCC4C6)CC5)cc23)cc1 [Example 167, N,N-Dimethyl-2-(4-{5-[(7S)-7-{3-oxa-6-azabicyclo[3.1.1]heptan-6-yl}-6,7,8,9-tetrahydro-5H-benzo[7]annulen-2-yl]-1H-pyrazolo[3,4-b]pyridin-3-yl}phenyl)pyridine-3-carboxamide]",< 100,100 to 1000
"Cc1cccnc1-c1ccc(-c2c[nH]c3ncc(-c4ccc5c(c4)CC[C@@H](N4C6COCC4C6)CC5)cc23)nc1 [Example 96, 3-Methyl-6′-{5-[(7S)-7-{3-oxa-6-azabicyclo[3.1.1]heptan-6-yl}-6,7,8,9-tetrahydro-5H-benzo[7]annulen-2-yl]-1H-pyrrolo[2,3-b]pyridin-3-yl}-2,3′-bipyridine]",< 100,100 to 1000
"COc1cccnc1-c1ccc(-c2n[nH]c3ncc(-c4ccc5c(c4)CC[C@@H](N4C6COCC4C6)CC5)cc23)cc1 [Example 166, 6-[(7S)-2-{3-[4-(3-Methoxypyridin-2-yl)phenyl]-1H-pyrazolo[3,4-b]pyridin-5-yl}-6,7,8,9-tetrahydro-5H-benzo[7]annulen-7-yl]-3-oxa-6-azabicyclo[3.1.1]heptane]",< 100,100 to 1000
"COc1cccnc1-c1ccc(-c2c[nH]c3ncc(-c4ccc5c(c4)CC[C@@H](N4C6COCC4C6)CC5)cc23)cc1 [Example 164, 6-[(7S)-2-{3-[4-(3-Methoxypyridin-2-yl)phenyl]-1H-pyrrolo[2,3-b]pyridin-5-yl}-6,7,8,9-tetrahydro-5H-benzo[7]annulen-7-yl]-3-oxa-6-azabicyclo[3.1.1]heptane]",< 100,100 to 1000
"Cc1ccc(-c2ccc(-c3n[nH]c4ncc(-c5ccc6c(c5)CC[C@@H](N5C7COCC5C7)CC6)cc34)cc2)nc1 [Example 115, 6-[(7S)-2-{3-[4-(5-Methylpyridin-2-yl)phenyl]-1H-pyrazolo[3,4-b]pyridin-5-yl}-6,7,8,9-tetrahydro-5H-benzo[7]annulen-7-yl]-3-oxa-6-azabicyclo[3.1.1]heptane]",> 1000,100 to 1000
"CC(C)(C#N)c1cccnc1-c1ccc(-c2c[nH]c3ncc(-c4ccc5c(c4)CC[C@@H](N4C6COCC4C6)CC5)cc23)cc1 [Example 21, 2-Methyl-2-[2-[4-[5-[(7S)-7-(3-oxa-6-azabicyclo[3.1.1]heptan-6-yl)-6,7,8,9-tetrahydro-5H-benzo[7]annulen-3-yl]-1H-pyrrolo[2,3-b]pyridin-3-yl]phenyl]pyridin-3-yl]propanenitrile]",< 100,100 to 1000
"Cc1ccnc(-c2ccc(-c3n[nH]c4ncc(-c5ccc6c(c5)CC[C@@H](N5C7COCC5C7)CC6)cc34)cc2)c1 [Example 117, 6-[(7S)-2-{3-[4-(4-Methylpyridin-2-yl)phenyl]-1H-pyrazolo[3,4-b]pyridin-5-yl}-6,7,8,9-tetrahydro-5H-benzo[7]annulen-7-yl]-3-oxa-6-azabicyclo[3.1.1]heptane]",100 to 1000,> 1000
"Cc1cccnc1-c1ccc(-c2n[nH]c3ncc(-c4ccc5c(c4)CC[C@@H](N4C6COCC4C6)CC5)cc23)nc1 [Example 26, 3-Methyl-6′-{5-[(7S)-7-{3-oxa-6-azabicyclo[3.1.1]heptan-6-yl}-6,7,8,9-tetrahydro-5H-benzo[7]annulen-2-yl]-1H-pyrazolo[3,4-b]pyridin-3-yl}-2,3′-bipyridine]",100 to 1000,100 to 1000
"COCCOc1cccnc1-c1ccc(-c2n[nH]c3ncc(-c4ccc5c(c4)CC[C@@H](N4C6COCC4C6)CC5)cc23)cc1 [Example 180, 6-[(7S)-2-(3-{4-[3-(2-Methoxyethoxy)pyridin-2-yl]phenyl}-1H-pyrazolo[3,4-b]pyridin-5-yl)-6,7,8,9-tetrahydro-5H-benzo[7]annulen-7-yl]-3-oxa-6-azabicyclo[3.1.1]heptane]",< 100,100 to 1000
"CC(C)(O)c1cccnc1-c1ccc(-c2c[nH]c3ncc(-c4ccc5c(c4)CC[C@@H](N4C6COCC4C6)CC5)cc23)cc1 [Example 95, 2-[2-(4-{5-[(7S)-7-{3-Oxa-6-azabicyclo[3.1.1]heptan-6-yl}-6,7,8,9-tetrahydro-5H-benzo[7]annulen-2-yl]-1H-pyrrolo[2,3-b]pyridin-3-yl}phenyl)pyridin-3-yl]propan-2-ol]",< 100,< 100
"Cc1cccnc1-c1ccc(-c2c[nH]c3ncc(-c4ccc5c(c4)CC[C@@H](N4C[C@@H]6C[C@H]4CO6)CC5)cc23)cc1 [Example 187, (4S)-5-[(7S)-2-{3-[4-(3-Methylpyridin-2-yl)phenyl]-1H-pyrrolo[2,3-b]pyridin-5-yl}-6,7,8,9-tetrahydro-5H-benzo[7]annulen-7-yl]-2-oxa-5-azabicyclo[2.2.1]heptane]",< 100,100 to 1000
